# Measured values reported in patent publication US12428417B2, “Inhibitors of macrophage migration inhibitory factor” (The Brigham and Women's Hospital, Inc., priority 2019, dated 2025).
# Legend:
# [1] = system: P. falciparum infected RBC cultures; assay: FACS analysis of infected RBC cultures (schizont stage); assay type: cell-based; conditions: 48 to 60 hours post infection; data not shown
# Experimental: (§1) P. falciparum strain NF54 attB parasites (Dr. Niles, MIT). Synchronized late-stage schizonts were added at 1% initial parasitemia to uninfected recipient normal RBCs and parasitemia was measured by FACS (FIG. 2). […] Given that ibudilast has inhibitory effect on the function of MIF as well as phosphodiesterase 4 (PDE4) in the RBC, it was evaluated whether specific inhibitors of MIF and PDE4 would cause major decline in parasitemia at similar dosages. While inhibition of parasite growth was not observed due to abolishing the function of PDE4 (data not shown), inhibition of the tautomerase activity of MIF in vitro by an irreversible inhibitor of MIF—4-IPP—caused a significant decline in the levels of parasitemia (FIG. 2).
# [2] = system: Pf-infected RBCs; assay: Confocal microscopy of Pf-infected RBCs with BODIPY TR lipophilic intracellular staining (egress); assay type: cell-based, P. falciparum; conditions: treated Pf-infected RBCs; FIG. 3
# Excerpt: One plane of confocal microscopy z-stack is shown.
# [3] = system: P. falciparum strain NF54 attB parasites; assay: Invasion assay: synchronized late-stage schizonts added to uninfected RBCs, parasitemia measured by FACS; assay type: cell-based
# Experimental: Experimental protocol: Synchronized late-stage schizonts were added at 1% initial parasitemia to uninfected recipient normal RBCs and parasitemia was measured by FACS. Parasitemia is normalized to the control no-inhibitor condition. Data analyzed by one-way ANOVA. Statistically significant differences are indicated with a star over the bar. Asterisk (*) indicates p<0.01 compared to control (no-inhibitor).
# FIG. 2 describes results of invasion assay in presence of titrated amounts of MIF inhibitors. […] All data is normalized to the control no-inhibitor condition. […] Asterisk (*) indicates p<0.01 compared to control (no-inhibitor).
# as §1
molecule,measurement,setting,value
Ic1cc(-c2ccccc2)ncn1 [Example 4-IPP],percentage of mature schizont,[1],significant increase
same,state of mature schizonts (egress),[2],mature schizonts remain encapsulated
same,parasitemia in vitro,"[3]; 1% initial parasitemia, normal RBCs, FIG. 2",significantly lowered parasitemia
same,parasitemia after removal of inhibitor 6 h post-infection,[3]; inhibitor removed 6 h post-infection,did not recover the parasitemia
same,parasitemia after treating only the recipient RBCs before infection,"[3]; recipient RBCs treated 3 h and 6 h, inhibitor washed off before infection",parasitemia at the level of the control condition
COC(=O)CC1CC(c2ccc(O)cc2)=NO1 (stereo not shown) [ISO-1],invasion at a range of concentrations,[3]; data not shown,did not reduce the invasion
"hu-MIF: exogenous human macrophage migration inhibitory factor added in the invasion assay (protein, UniProt P14174 2-115, looked up) Macrophage migration …: PMFIVNTNVPRASVPDGFLSELTQQLAQATGKPPQYIAVHVVPDQLMAFGGSSEPCALCSLHSIGKIGGAQNRSYSKLLCGLLAERLRISPDRVYINYYDMNAANVGWNNSTFA",parasitemia in presence of exogenous protein,"[3]; cells preincubated for up to 6 h, data not shown",did not show reduced or increased parasitemia
